Drawing on patent US20170210723A1, “MOLECULES HAVING PESTICIDAL UTILITY, AND INTERMEDIATES, COMPOSITIONS, AND PROCESSES, RELATED THERETO” (priority 2016, published 2017), this text covers mortality for 20 molecules.

For orientation: mortality means the percentage killed.

Assay [1] concerns Cabbage Looper (Trichoplusia ni). Nature of the assay: Bioassays on CL, 128-well diet tray assay. Format: in vivo. The conditions noted are these: Trichoplusia ni, 168 h; 50 μg/cm^2 on artificial diet, second instar larvae, five to seven days; read-out: CL % Control (or Mortality) rating. As for the experimental part: Bioassays on CL were conducted using a 128-well diet tray assay.
One to five second instar CL larvae were placed in each well (3 mL) of the diet tray that had been previously filled with 1 mL of artificial diet to which 50 μg/cm^2 of the test molecule (dissolved in 50 μL of 90:10 acetone-water mixture) had been applied (to each of eight wells) and then allowed to dry. Trays were covered with a clear self-adhesive cover and held at 25° C., 14:10 light-dark for five to seven days. Percent mortality was recorded for the larvae in each well; activity in the eight wells was then averaged. The results are indicated in the table entitled “Table ABC: Biological Results” (See Table Section).
(§1) Bioassays on BAW and CL were conducted according to the procedures outlined in Example A: Bioassays on Beet Armyworm (“BAW”) and Cabbage Looper (“CL”) using the indicated concentrations.

In assay [2] the test system is Beet Armyworm (Spodoptera exigua). Nature of the assay: Bioassays on BAW, 128-well diet tray assay. It is filed as in vivo. The conditions noted are these: Spodoptera exigua, 168 h; 50 μg/cm^2 on artificial diet, second instar larvae, five to seven days; read-out: BAW % Control (or Mortality) rating. The method, then: Bioassays on BAW were conducted using a 128-well diet tray assay. One to five second instar BAW larvae were placed in each well (3 mL) of the diet tray that had been previously filled with 1 mL of artificial diet to which 50 μg/cm^2 of the test molecule (dissolved in 50 μL of 90:10 acetone-water mixture) had been applied (to each of eight wells) and then allowed to dry. Trays were covered with a clear self-adhesive cover and held at 25° C., 14:10 light-dark for five to seven days. Percent mortality was recorded for the larvae in each well; activity in the eight wells was then averaged. The results are indicated in the table entitled “Table ABC: Biological Results” (See Table Section).
as §1

For the molecule `CC(C)CS(=O)(=O)C[C@@H](C)NC(=O)c1ccc(/C=C/C(c2cc(Cl)c(Cl)c(Cl)c2)C(F)(F)F)cc1C(F)(F)F` (stereo partly drawn) [F81, N—((R)-1-(Isobutylsulfonyl)propan-2-yl)-4-((E)-4,4,4-trifluoro-3-(3,4,5-trichlorophenyl)but-1-en-1-yl)-2-(trifluoromethyl)benzamide], the mortality at 50 µg/cm2 in assay [1] and in assay [2] was 50 to 100% in each case.

Turning to `CC(C)[S+]([O-])C[C@@H](C)NC(=O)c1ccc(/C=C/C(c2cc(Cl)c(Cl)c(Cl)c2)C(F)(F)F)cc1C(F)(F)F` (stereo partly drawn) [F82, N-((2R)-1-(Isopropylsulfinyl)propan-2-yl)-4-((E)-4,4,4-trifluoro-3-(3,4,5-trichlorophenyl)but-1-en-1-yl)-2-(trifluoromethyl)benzamide], the mortality at 50 µg/cm2 in assay [1] and in assay [2] was 50 to 100% each time.

As for `O=C(NCC1(SCC(F)(F)F)COC1)c1ccc(/C=C/C(c2cc(Cl)c(Cl)c(Cl)c2)C(F)(F)F)cc1C(F)(F)F` (stereo not shown) [F83, (E)-4-(4,4,4-Trifluoro-3-(3,4,5-trichlorophenyl)but-1-en-1-yl)-N-((3-((2,2,2-trifluoroethyl)thio)oxetan-3-yl)methyl)-2-(trifluoromethyl)benzamide], the mortality at 50 µg/cm2 in assay [1] and in assay [2] was 50 to 100% each time.

As to `C[C@H](CS(=O)(=O)CC(F)(F)F)NC(=O)c1ccc(/C=C/C(c2cc(Cl)c(Cl)c(Cl)c2)C(C)(F)F)cc1C(F)(F)F` (stereo partly drawn) [F84, 4-((E)-4,4-Difluoro-3-(3,4,5-trichlorophenyl)pent-1-en-1-yl)-N—((R)-1-((2,2,2-trifluoroethyl)sulfonyl)propan-2-yl)-2-(trifluoromethyl)benzamide], the mortality at 50 µg/cm2 in assay [1] and in assay [2] was 50 to 100% in each case.

Take `O=C(NCC1([S+]([O-])CC(F)(F)F)COC1)c1ccc(/C=C/C(c2cc(Cl)c(Cl)c(Cl)c2)C(F)(F)F)cc1C(F)(F)F` (stereo not shown) [F107, (E)-4-(4,4,4-Trifluoro-3-(3,4,5-trichlorophenyl)but-1-en-1-yl)-N-((3-((2,2,2-trifluoroethyl)sulfinyl)oxetan-3-yl)methyl)-2-(trifluoromethyl)benzamide]: the mortality at 50 µg/cm2 in assay [1] and in assay [2] was 50 to 100% each time.

Turning to `C[C@H](CSCC(F)(F)F)NC(=O)c1ccc(/C=C/C(c2cc(Cl)c(Cl)c(Cl)c2)C(C)(F)F)cc1C(F)(F)F` (stereo partly drawn) [F108, 4-((E)-4,4-Difluoro-3-(3,4,5-trichlorophenyl)pent-1-en-1-yl)-N—((R)-1-((2,2,2-trifluoroethyl)thio)propan-2-yl)-2-(trifluoromethyl)benzamide], the mortality at 50 µg/cm2 in assay [1] and in assay [2] was 50 to 100% each time.

For `C[C@H](CS(=O)(=O)CC(F)(F)F)NC(=O)c1ccc(/C=C/C(c2cc(Cl)c(Cl)c(Br)c2)C(F)(F)F)cc1C(F)(F)F` (stereo partly drawn) [F114, 4-((E)-3-(3-Bromo-4,5-dichlorophenyl)-4,4,4-trifluorobut-1-en-1-yl)-N—((R)-1-((2,2,2-trifluoroethyl)sulfonyl)propan-2-yl)-2-(trifluoromethyl)benzamide], the mortality at 50 µg/cm2 in assay [1] and in assay [2] was 50 to 100% each time.

For the molecule `C=Cc1cc(C(/C=C/c2ccc(C(=O)N[C@H](C)CS(=O)(=O)CC(F)(F)F)c(C(F)(F)F)c2)C(F)(F)F)cc(Cl)c1Cl` (stereo partly drawn) [F115, 4-((E)-3-(3,4-Dichloro-5-vinylphenyl)-4,4,4-trifluorobut-1-en-1-yl)-N—((R)-1-((2,2,2-trifluoroethyl)sulfonyl)propan-2-yl)-2-(trifluoromethyl)benzamide], the mortality at 50 µg/cm2 in assay [1] and in assay [2] was 50 to 100% throughout.

On to `C[C@H](CSCC(F)(F)F)NC(=O)c1ccc(/C=C/C(c2cc(Cl)c(Cl)c(Br)c2)C(F)(F)F)cc1C(F)(F)F` (stereo partly drawn) [F116, 4-((E)-3-(3-Bromo-4,5-dichlorophenyl)-4,4,4-trifluorobut-1-en-1-yl)-N—((R)-1-((2,2,2-trifluoroethyl)thio)propan-2-yl)-2-(trifluoromethyl)benzamide], for which the mortality at 50 µg/cm2 in assay [1] and in assay [2] was 50 to 100% throughout.

For `C[C@H](C[S+]([O-])CC(F)(F)F)NC(=O)c1ccc(/C=C/C(c2ccc(Cl)c(Cl)c2)C(F)(F)F)cc1Br` (stereo partly drawn) [F117, 2-Bromo-4-((E)-3-(3,4-dichlorophenyl)-4,4,4-trifluorobut-1-en-1-yl)-N-((2R)-1-((2,2,2-trifluoroethyl)sulfinyl)propan-2-yl)benzamide], the mortality at 50 µg/cm2 in assay [1] and in assay [2] was 50 to 100% each time.

With `C[C@H](CS(=O)(=O)CC(F)(F)F)NC(=O)c1ccc(/C=C/C(c2cc(Br)cc(OCC(F)(F)F)c2)C(C)(F)F)cc1C(F)(F)F` (stereo partly drawn) [F120, 4-((E)-3-(3-Bromo-5-(2,2,2-trifluoroethoxy)phenyl)-4,4-difluoropent-1-en-1-yl)-N—((R)-1-((2,2,2-trifluoroethyl)sulfonyl)propan-2-yl)-2-(trifluoromethyl)benzamide], the mortality at 50 µg/cm2 in assay [1] and in assay [2] was 50 to 100% each time.

`C[C@H](C[S+]([O-])CCF)NC(=O)c1ccc(/C=C/C(c2cc(Cl)c(Cl)c(Cl)c2)C(C)(F)F)cc1C(F)(F)F` (stereo partly drawn) [F121, 4-((E)-4,4-Difluoro-3-(3,4,5-trichlorophenyl)pent-1-en-1-yl)-N-((2R)-1-((2-fluoroethyl)sulfinyl)propan-2-yl)-2-(trifluoromethyl)benzamide]: the mortality at 50 µg/cm2 in assay [1] and in assay [2] was 50 to 100% each time.

For `C[C@H](CS(=O)(=O)CCF)NC(=O)c1ccc(/C=C/C(c2cc(Cl)c(Cl)c(Cl)c2)C(C)(F)F)cc1C(F)(F)F` (stereo partly drawn) [F122, 4-((E)-4,4-Difluoro-3-(3,4,5-trichlorophenyl)pent-1-en-1-yl)-N—((R)-1-((2-fluoroethyl)sulfonyl)propan-2-yl)-2-(trifluoromethyl)benzamide], the mortality at 50 µg/cm2 in assay [1] and in assay [2] was 50 to 100% throughout.

In the case of `C[C@H](CS(=O)(=O)CC(F)(F)F)NC(=O)c1ccc(/C=C/C(c2ccc(C(F)(F)F)c(F)c2)C(C)(F)F)cc1C(F)(F)F` (stereo partly drawn) [F123, 4-((E)-4,4-Difluoro-3-(3-fluoro-4-(trifluoromethyl)phenyl)pent-1-en-1-yl)-N—((R)-1-((2,2,2-trifluoroethyl)sulfonyl)propan-2-yl)-2-(trifluoromethyl)benzamide], the mortality at 50 µg/cm2 in assay [1] and in assay [2] was 50 to 100% each time.

`C[C@H](CS(=O)(=O)CC(F)(F)F)NC(=O)c1ccc(/C=C/C(c2ccc(Cl)c(Cl)c2)C(F)(F)F)cc1Br` (stereo partly drawn) [F124, 2-Bromo-4-((E)-3-(3,4-dichlorophenyl)-4,4,4-trifluorobut-1-en-1-yl)-N—((R)-1-((2,2,2-trifluoroethyl)sulfonyl)propan-2-yl)benzamide]: the mortality at 50 µg/cm2 in assay [1] and in assay [2] was 50 to 100% in each case.

Consider `CC(F)(F)C(/C=C/c1ccc(C(=O)NCC[S+]([O-])CCF)c(C(F)(F)F)c1)c1cc(Cl)c(Cl)c(Cl)c1` (stereo not shown) [F129, (E)-4-(4,4-Difluoro-3-(3,4,5-trichlorophenyl)pent-1-en-1-yl)-N-(2-((2-fluoroethyl)sulfinyl)ethyl)-2-(trifluoromethyl)benzamide], for which the mortality at 50 µg/cm2 in assay [1] and in assay [2] was 50 to 100% throughout.

For the molecule `C[C@H](CS(=O)(=O)CC(F)(F)F)NC(=O)c1ccc(/C=C/C(c2cc(Cl)c(Cl)c(Cl)c2)C(C)(F)F)cc1Br` (stereo partly drawn) [F130, 2-bromo-4-((E)-4,4-difluoro-3-(3,4,5-trichlorophenyl)pent-1-en-1-yl)-N—((R)-1-((2,2,2-trifluoroethyl)sulfonyl)propan-2-yl)benzamide], the mortality at 50 µg/cm2 in assay [1] and in assay [2] was 50 to 100% in each case.

Take `C[C@H](CS(=O)(=O)CC(F)(F)F)NC(=O)c1ccc(/C=C/C(c2cc(Cl)cc(Cl)c2)C(C)(F)F)cc1Br` (stereo partly drawn) [F133, 2-Bromo-4-((E)-3-(3,5-dichlorophenyl)-4,4-difluoropent-1-en-1-yl)-N—((R)-1-((2,2,2-trifluoroethyl)sulfonyl)propan-2-yl)benzamide]: the mortality at 50 µg/cm2 in assay [1] and in assay [2] was 50 to 100% throughout.

`C[C@H](CS(=O)(=O)CC(F)(F)F)NC(=O)c1ccc(/C=C/C(c2ccc(F)c(C(F)(F)F)c2)C(C)(F)F)cc1C(F)(F)F` (stereo partly drawn) [F135, 4-((E)-4,4-Difluoro-3-(4-fluoro-3-(trifluoromethyl)phenyl)pent-1-en-1-yl)-N—((R)-1-((2,2,2-trifluoroethyl)sulfonyl)propan-2-yl)-2-(trifluoromethyl)benzamide]: the mortality at 50 µg/cm2 in assay [1] and in assay [2] was 50 to 100% in each case.

Turning to `C[C@H](CS(=O)(=O)CC(F)(F)F)NC(=O)c1ccc(/C=C/C(c2cc(F)c(F)c(F)c2)C(C)(F)F)cc1C(F)(F)F` (stereo partly drawn) [F136, 4-((E)-4,4-Difluoro-3-(3,4,5-trifluorophenyl)pent-1-en-1-yl)-N—((R)-1-((2,2,2-trifluoroethyl)sulfonyl)propan-2-yl)-2-(trifluoromethyl)benzamide], the mortality at 50 µg/cm2 in assay [1] and in assay [2] was 50 to 100% throughout.
